What was measured:
[1] = system: primary human foreskin fibroblast (HFF) cells; assay: DNA laddering by ethidium bromide staining in HFF cells; type: cell-based; details: low molecular weight DNA
Protocol: (§1) Biochemical induction of apoptosis. Cell apoptosis was induced by the addition of staurosporine (Calbiochem, San Diego, Calif.) to the medium at a final concentration of either 1 or 2 μM. Cells were maintained in the presence of staurosporine for 24 h. TNF (Sigma) was added directly to medium at a final concentration of 10 ng/ml in combination with cycloheximide (Sigma) at a final concentration of 10 μg/ml for 24 h.
DNA laddering by ethidium bromide staining. Low molecular weight DNA was isolated from cells as described (Koyama and Miwa, J. Virol. 1997, 71:2567; Aubert and Blaho, J. Virol. 1999, 73:2803). The DNA samples were subjected to electropheresis in a horizontal 1.5% agarose gel, followed by staining with 10 μg/ml ethidium bromide. DNA was visualilzed by UV light transillumination and photographed with Polaroid 67 film.
(§2) The transformed cell lines we analyzed above were of human origin. Thus, it was necessary to confirm our MEF cell results using a primary human cell line. We assessed the p53 status, the susceptibility of rdHSV-1 infection, and the ability to undergo apoptosis of primary human foreskin fibroblast (HFF) cells by immunoblotting, Hoechst staining, and DNA laddering assays. […] Finally, we stained the infected and treated HFF cells with Hoechst DNA dye and visualized cellular and nuclear morphologies by fluorescence and phase-contrast microscopy. […]

primary MEF cells = assay: Phase-contrast microscopy and Hoechst staining of infected or treated MEF cells; type: cell-based, mouse; details: Hoechst dye, 15 h
Description: Cells and viruses. All cells were maintained in Dulbecco's modified Eagle's medium (DMEM) containing 5% fetal bovine serum. Human larynx epidermoid carcinoma HEp-2 (Moore, Cancer Res.1955, 15:598-605), epithelial cervical carcinoma HeLa S3 (Puck, et al, J. Exp. Med.1956, 103:273-284, osteosarcoma 143B (Post and Roizman, Cell 1981, 25:227-32), and African green monkey kidney Vero (Yasumura and Kawakita, Nippon Rinsho 1963, 21:1209) cells were obtained from the American Type Culture Collection (Rockville, Md. V2.2 is a derivative Vero cell line, which carries a stably integrated copy of the ICP27 gene (Rice and Knipe, J Virol. 1990, 64:1704-15). Adenovirus type 5 transformed human primary embryonal kidney 293 (Graham et al., J Gen Virol. 1977, 36:59-74) and SV40 T antigen expressing 293T cells were obtained from the ATCC. […]
To assess whether rdHSV-1 triggers apoptosis in infected MEF, cell morphologies were documented by phase-contrast microscopy and condensed nuclei were visualized following staining with a fluorescent Hoechst dye. […] Cells were analyzed 15 h post-infection. […] Few, if any, cells with condensed nuclei were detected following infection with either rdHSV-1 strain. […]

293 cells = assay: Immunoblots for PARP, caspase-3 and p53 in infected or treated 293 cells; type: cell-based, human
Protocol: Cells and viruses. All cells were maintained in Dulbecco's modified Eagle's medium (DMEM) containing 5% fetal bovine serum. […]
Extraction of cells and denaturing gel electrophoresis. Whole extracts of cells were obtained as previously described (Aubert and Blaho, J Virol. 1999, 73:2803-2813; Aubert et al., J. Virol. 1999, 73:10359-70) Protein concentrations were measured using a modified Bradford assay (Biorad) as recommended by the vendor. […]
The results above indicate that cells whose p53 is undermodified are susceptible to apoptosis triggered by rdHSV-1 while those which accumulate phosphorylated p53 are resistant. To confirm the prediction that the amount of phosphorylated p53 present in a given cell is an accurate indicator of whether the cell will be killed by an rdHSV-1, 293 cells were analyzed. […]

[2] = system: primary human foreskin fibroblast (HFF) cells; assay: Hoechst staining, fluorescence and phase-contrast microscopy of HFF cells; type: cell-based; details: Hoechst DNA dye
Protocol: as §1
Microscopic analyses and computer graphics. Infected cell phenotypes were documented by phase-contrast light microscopy using an Olympus CK2/PM-10AK3 system with an attached 35 mm camera. For analyses of chromatin condensation, cells were grown and infected (as described above) in a 35-mm plate. At 24 hours post infection, the cells were incubated with the DNA dye Hoechst 33258 (Sigma) at a final concentration of 5 μg/ml in PBS for 15 minutes at 37° C. […]
as §2, with “Thus, it was necessary to confirm our MEF cell results using a primary human cell line.” left out

CN[C@@H]1C[C@H]2O[C@@](C)([C@@H]1OC)n1c3ccccc3c3c4c(c5c6ccccc6n2c5c31)C(=O)NC4 [staurosporine]
DNA laddering / fragmentation [1]: DNA fragmentation that migrated as a smear
cells with condensed nuclei / chromatin (primary MEF cells): significant number of small apoptotic cells which contained condensed chromatin
signs of apoptosis (PARP processing) (293 cells; environmental stimulators, double dose of STS): no signs of apoptosis were detected
apoptosis (PARP and caspase-3 processing) (293 cells; presence or absence of CHX): did not undergo apoptosis
condensed chromatin / features of apoptosis [2]: showed features indicative of apoptosis

— US20020187126A1, “Methods for viral oncoapoptosis in cancer therapy” (priority 2001, published 2002)
